Assay results: ChEMBL document CHEMBL1909046, “DrugMatrix in vitro pharmacology data”

Assays:
[1] = molecular target: T1, Neuropeptide Y receptor type 2 (Homo sapiens, UniProt P49146); format: cell membranes, Membrane; details: kan-ts; also: in other assays of this panel Not Active means under 50% inhibition at 10 µM
T1 sequence (P49146 whole entry): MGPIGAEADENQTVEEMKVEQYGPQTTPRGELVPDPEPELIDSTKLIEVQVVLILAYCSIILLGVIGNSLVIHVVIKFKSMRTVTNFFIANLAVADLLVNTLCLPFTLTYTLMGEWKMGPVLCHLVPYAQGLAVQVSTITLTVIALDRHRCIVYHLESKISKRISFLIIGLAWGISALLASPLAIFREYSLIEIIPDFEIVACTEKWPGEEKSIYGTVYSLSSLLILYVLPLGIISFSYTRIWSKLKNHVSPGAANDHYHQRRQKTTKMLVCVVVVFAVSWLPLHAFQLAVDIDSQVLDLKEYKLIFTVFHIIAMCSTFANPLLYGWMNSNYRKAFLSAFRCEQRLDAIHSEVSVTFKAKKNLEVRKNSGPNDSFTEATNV

[2] = molecular target: T2, Alpha-2C adrenergic receptor (Homo sapiens, UniProt P18825); experiment: DRUGMATRIX: Adrenergic Alpha-2C radioligand binding (ligand: [3H] MK-912); format: cell membranes, Sf9, Membrane; details: sf9
T2 sequence (P18825 whole entry): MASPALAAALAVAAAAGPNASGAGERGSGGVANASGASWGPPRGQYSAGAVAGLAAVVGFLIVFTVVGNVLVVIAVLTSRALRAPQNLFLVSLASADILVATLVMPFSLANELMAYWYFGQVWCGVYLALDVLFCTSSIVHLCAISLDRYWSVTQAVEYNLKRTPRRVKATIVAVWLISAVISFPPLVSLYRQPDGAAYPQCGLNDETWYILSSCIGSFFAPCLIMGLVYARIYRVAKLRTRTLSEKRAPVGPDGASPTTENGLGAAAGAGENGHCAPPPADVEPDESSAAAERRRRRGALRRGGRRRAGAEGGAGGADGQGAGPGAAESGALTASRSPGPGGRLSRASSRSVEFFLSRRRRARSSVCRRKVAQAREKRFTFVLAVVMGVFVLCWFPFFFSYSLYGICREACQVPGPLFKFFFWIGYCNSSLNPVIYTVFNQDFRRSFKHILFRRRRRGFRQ

Vasopressin V1a receptor = Vasopressin V1a receptor (Homo sapiens, UniProt P37288); format: cell membranes, Membrane; details: hek293; also: in other assays of this panel Not Active means under 50% inhibition at 10 µM
Chain of Vasopressin V1a receptor (P37288 whole entry): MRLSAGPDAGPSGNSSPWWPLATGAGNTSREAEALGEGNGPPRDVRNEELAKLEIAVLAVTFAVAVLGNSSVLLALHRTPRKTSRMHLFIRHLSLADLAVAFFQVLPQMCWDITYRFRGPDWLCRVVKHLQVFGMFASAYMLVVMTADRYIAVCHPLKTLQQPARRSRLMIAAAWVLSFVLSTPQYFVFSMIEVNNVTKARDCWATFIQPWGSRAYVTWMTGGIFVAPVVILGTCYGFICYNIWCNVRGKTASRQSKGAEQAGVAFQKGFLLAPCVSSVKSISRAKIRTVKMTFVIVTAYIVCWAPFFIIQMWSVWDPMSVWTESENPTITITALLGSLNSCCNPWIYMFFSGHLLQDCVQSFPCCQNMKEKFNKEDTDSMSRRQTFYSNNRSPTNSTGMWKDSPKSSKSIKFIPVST

[3] = DRUGMATRIX: Phosphodiesterase PDE3 enzyme inhibition (substrate: [3H]cAMP + cAMP); format: tissue-based, Homo sapiens; details: platelet; Not Active = under 50% inhibition at 10 µM
[4] = molecular target: Protein kinase C alpha type (Homo sapiens, UniProt P17252); format: cell-based; details: sf9;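 also: inhibition of PKCalpha kinase activity measured in an enzyme assay with histone as the phosphorylation substrate; in other assays of this panel Not Active means under 50% inhibition at 10 µM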
[5] = molecular target: T3, Alpha-1B adrenergic receptor (Rattus norvegicus, UniProt P15823); experiment: DRUGMATRIX: Alpha-1B adrenergic receptor radioligand binding (ligand: prazosin); format: cell membranes, Wistar, Liver, Membrane; details: Not Active = under 50% inhibition at 10 µM
T3 sequence (P15823 whole entry): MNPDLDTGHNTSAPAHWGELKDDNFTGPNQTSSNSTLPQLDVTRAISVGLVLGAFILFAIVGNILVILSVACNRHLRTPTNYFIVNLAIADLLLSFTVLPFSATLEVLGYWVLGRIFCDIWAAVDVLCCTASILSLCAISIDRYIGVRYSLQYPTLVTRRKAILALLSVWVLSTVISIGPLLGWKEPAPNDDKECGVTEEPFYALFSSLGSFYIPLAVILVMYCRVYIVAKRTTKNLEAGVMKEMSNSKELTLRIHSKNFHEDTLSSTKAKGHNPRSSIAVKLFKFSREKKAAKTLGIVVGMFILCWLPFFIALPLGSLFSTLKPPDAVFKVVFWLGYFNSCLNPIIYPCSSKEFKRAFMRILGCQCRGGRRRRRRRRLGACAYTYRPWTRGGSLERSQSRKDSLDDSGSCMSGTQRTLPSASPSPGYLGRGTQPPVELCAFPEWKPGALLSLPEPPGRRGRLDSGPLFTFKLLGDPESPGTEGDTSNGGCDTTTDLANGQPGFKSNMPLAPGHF

[6] = molecular target: T4, Angiotensin-converting enzyme (Oryctolagus cuniculus, UniProt P12822); experiment: biochemical; format: tissue-based, Lung;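 also: enzymatic inhibition of angiotensin-converting enzyme measured with FAPGG as the substrate; in other assays of this panel Not Active means under 50% inhibition at 10 µM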
T4 sequence (P12822 whole entry): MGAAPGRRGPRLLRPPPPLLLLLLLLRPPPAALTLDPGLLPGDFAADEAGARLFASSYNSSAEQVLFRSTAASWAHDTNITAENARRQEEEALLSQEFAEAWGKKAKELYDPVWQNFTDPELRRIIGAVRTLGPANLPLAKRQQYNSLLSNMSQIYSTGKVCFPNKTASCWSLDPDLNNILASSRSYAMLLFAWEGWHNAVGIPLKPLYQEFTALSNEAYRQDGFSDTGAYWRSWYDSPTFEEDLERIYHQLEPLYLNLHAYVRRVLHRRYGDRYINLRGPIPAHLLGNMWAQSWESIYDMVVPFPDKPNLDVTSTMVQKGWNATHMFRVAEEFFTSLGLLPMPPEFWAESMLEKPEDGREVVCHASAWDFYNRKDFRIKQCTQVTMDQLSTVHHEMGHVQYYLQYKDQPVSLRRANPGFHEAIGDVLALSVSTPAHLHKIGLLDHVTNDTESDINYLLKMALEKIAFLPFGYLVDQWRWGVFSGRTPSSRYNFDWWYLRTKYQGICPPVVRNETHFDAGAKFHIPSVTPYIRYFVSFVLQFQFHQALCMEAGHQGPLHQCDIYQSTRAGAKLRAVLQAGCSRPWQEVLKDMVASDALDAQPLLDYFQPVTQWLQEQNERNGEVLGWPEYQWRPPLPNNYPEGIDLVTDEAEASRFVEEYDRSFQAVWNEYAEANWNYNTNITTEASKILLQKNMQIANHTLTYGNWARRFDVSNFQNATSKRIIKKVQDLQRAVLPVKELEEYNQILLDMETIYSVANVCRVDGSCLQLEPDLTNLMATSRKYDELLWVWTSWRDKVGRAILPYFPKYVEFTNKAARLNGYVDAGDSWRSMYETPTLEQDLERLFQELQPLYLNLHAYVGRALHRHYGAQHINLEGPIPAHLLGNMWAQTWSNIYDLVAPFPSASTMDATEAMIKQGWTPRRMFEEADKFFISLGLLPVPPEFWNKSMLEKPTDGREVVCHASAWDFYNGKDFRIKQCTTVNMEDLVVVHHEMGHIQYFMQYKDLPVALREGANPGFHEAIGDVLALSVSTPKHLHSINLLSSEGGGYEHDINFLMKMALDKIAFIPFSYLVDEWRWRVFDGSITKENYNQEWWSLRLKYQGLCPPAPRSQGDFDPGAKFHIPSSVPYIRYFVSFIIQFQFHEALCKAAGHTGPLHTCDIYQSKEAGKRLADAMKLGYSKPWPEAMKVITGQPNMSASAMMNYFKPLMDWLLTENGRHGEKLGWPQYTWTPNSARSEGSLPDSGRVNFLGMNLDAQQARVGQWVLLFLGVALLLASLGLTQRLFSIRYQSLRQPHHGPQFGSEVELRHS

[7] = molecular target: 5-hydroxytryptamine receptor 1B (Rattus norvegicus, UniProt P28564); format: cell membranes, Wistar, Cerebral cortex, Membrane; also: in other assays of this panel Not Active means under 50% inhibition at 10 µM
Chain of 5-hydroxytryptamine receptor 1B (P28564 whole entry): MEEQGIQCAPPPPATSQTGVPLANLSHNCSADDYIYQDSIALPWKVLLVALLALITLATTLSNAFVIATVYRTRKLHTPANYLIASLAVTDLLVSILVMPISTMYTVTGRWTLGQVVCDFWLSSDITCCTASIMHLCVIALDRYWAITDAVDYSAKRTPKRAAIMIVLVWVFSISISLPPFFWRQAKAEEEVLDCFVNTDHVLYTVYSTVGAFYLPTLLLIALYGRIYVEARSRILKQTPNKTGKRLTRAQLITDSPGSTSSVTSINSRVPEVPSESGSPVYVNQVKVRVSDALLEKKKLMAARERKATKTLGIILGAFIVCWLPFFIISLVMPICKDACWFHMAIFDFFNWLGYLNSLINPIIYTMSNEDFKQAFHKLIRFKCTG

NNC(=O)c1ccncc1 [ISONIAZID]
Not Active: IC50 [1] | IC50 [2] | IC50 (Vasopressin V1a receptor) | IC50 [3] | Ki [3] | IC50 [4] | IC50 [5] | IC50 [6] | IC50 [7]

COC(=O)C1=C(C)NC(C)=C(C(=O)OC)C1c1ccccc1[N+](=O)[O-] [NIFEDIPINE]
Not Active: IC50 [1] | IC50 [2] | IC50 (Vasopressin V1a receptor) | IC50 [3] | Ki [3] | IC50 [4] | IC50 [5] | IC50 [6] | IC50 [7]

Cc1ncc([N+](=O)[O-])n1CC(C)O (configuration not stated) [SECNIDAZOLE]
Not Active: IC50 [1] | IC50 [2] | IC50 (Vasopressin V1a receptor) | IC50 [3] | Ki [3] | IC50 [4] | IC50 [5] | IC50 [6] | IC50 [7]

COS(C)(=O)=O [METHANESULFONIC ACID METHYL ESTER]
Not Active: IC50 [1] | IC50 [2] | IC50 (Vasopressin V1a receptor) | IC50 [3] | Ki [3] | IC50 [4] | IC50 [5] | IC50 [6] | IC50 [7]

CC(C)(C)NCC(O)c1ccc(O)c(CO)c1 (configuration not stated) [ALBUTEROL]
Not Active: IC50 [1] | IC50 [2] | IC50 (Vasopressin V1a receptor) | IC50 [3] | Ki [3] | IC50 [4] | IC50 [5] | IC50 [6] | IC50 [7]

Cc1ccc(C(=O)C(C)CN2CCCCC2)cc1 (configuration not stated) [TOLPERISONE]
Not Active: IC50 [1] | IC50 [2] | IC50 (Vasopressin V1a receptor) | IC50 [3] | Ki [3] | IC50 [4] | IC50 [5] | IC50 [6] | IC50 [7]

CN[C@H](CC(C)C)C(=O)N[C@H]1C(=O)N[C@@H](CC(N)=O)C(=O)N[C@H]2C(=O)N[C@H]3C(=O)N[C@H](C(=O)N[C@H](C(=O)O)c4cc(O)cc(O)c4-c4cc3ccc4O)[C@H](O)c3ccc(c(Cl)c3)Oc3cc2cc(c3O[C@@H]2O[C@H](CO)[C@@H](O)[C@H](O)[C@H]2O[C@H]2C[C@](C)(N)[C@H](O)[C@H](C)O2)Oc2ccc(cc2Cl)[C@H]1O [VANCOMYCIN]
Not Active: IC50 [1] | IC50 [2] | IC50 (Vasopressin V1a receptor) | IC50 [3] | Ki [3] | IC50 [4] | IC50 [5] | IC50 [6] | IC50 [7]

CC(=O)[C@H]1CC[C@H]2[C@@H]3CCC4=CC(=O)CC[C@]4(C)[C@H]3CC[C@]12C [PROGESTERONE]
Not Active: IC50 [1] | IC50 [2] | IC50 (Vasopressin V1a receptor) | IC50 [3] | Ki [3] | IC50 [4] | IC50 [5] | IC50 [6] | IC50 [7]

C[C@](N)(Cc1ccc(O)cc1)C(=O)O [METYROSINE]
Not Active: IC50 [1] | IC50 [2] | IC50 (Vasopressin V1a receptor) | IC50 [3] | Ki [3] | IC50 [4] | IC50 [5] | IC50 [6] | IC50 [7]

CC(C)[C@H](N)C(=O)OCCOCn1cnc2c(=O)nc(N)[nH]c21 [VALACYCLOVIR]
Not Active: IC50 [1] | IC50 [2] | IC50 (Vasopressin V1a receptor) | IC50 [3] | Ki [3] | IC50 [4] | IC50 [5] | IC50 [6] | IC50 [7]

Cc1cc(NS(=O)(=O)c2ccc(N)cc2)no1 [SULFAMETHOXAZOLE]
Not Active: IC50 [1] | IC50 [2] | IC50 (Vasopressin V1a receptor) | IC50 [3] | Ki [3] | IC50 [4] | IC50 [5] | IC50 [6] | IC50 [7]

CC1=C(/C=C/C(C)=C/C=C/C(C)=C\C(=O)O)C(C)(C)CCC1 [ISOTRETINOIN]
Not Active: IC50 [1] | IC50 [2] | IC50 (Vasopressin V1a receptor) | IC50 [3] | Ki [3] | IC50 [4] | IC50 [5] | IC50 [6] | IC50 [7]

C[C@]12Cc3c[nH]nc3C[C@@H]1CC[C@@H]1[C@@H]2CC[C@@]2(C)[C@H]1CC[C@]2(C)O [STANOZOLOL]
Not Active: IC50 [1] | IC50 [2] | IC50 (Vasopressin V1a receptor) | IC50 [3] | Ki [3] | IC50 [4] | IC50 [5] | IC50 [6] | IC50 [7]
